Literature values in patent publication US20150269865A1, “SYSTEMS AND METHODS FOR PERSONALIZED NUTRIMERS” (priority 2014, published 2015).

Key:
[1] = orally administered, human absorption kinetic studies, PMID 3257913
MTHFR = MTHFR (Homo sapiens, UniProt P42898); details: cofactor of MTHFR or needs to be metabolized into Methyl folate
[2] = PMID 9630738
[3] = in vivo
[4] = PMID 9630738; compared with folic acid
[5] = PMID 21735411; compared with Ergocalciferol (vitamin D2)
[6] = PMID23482308
[7] = PMID23482308; remark: listed apart in the source
[8] = human subject treated even for a few months; PMID 23751310
copper absorption = details: PMID 1726403
[9] = in vivo; remark: listed apart in the source
[10] = human, in vivo

Chain of MTHFR (P42898 whole entry): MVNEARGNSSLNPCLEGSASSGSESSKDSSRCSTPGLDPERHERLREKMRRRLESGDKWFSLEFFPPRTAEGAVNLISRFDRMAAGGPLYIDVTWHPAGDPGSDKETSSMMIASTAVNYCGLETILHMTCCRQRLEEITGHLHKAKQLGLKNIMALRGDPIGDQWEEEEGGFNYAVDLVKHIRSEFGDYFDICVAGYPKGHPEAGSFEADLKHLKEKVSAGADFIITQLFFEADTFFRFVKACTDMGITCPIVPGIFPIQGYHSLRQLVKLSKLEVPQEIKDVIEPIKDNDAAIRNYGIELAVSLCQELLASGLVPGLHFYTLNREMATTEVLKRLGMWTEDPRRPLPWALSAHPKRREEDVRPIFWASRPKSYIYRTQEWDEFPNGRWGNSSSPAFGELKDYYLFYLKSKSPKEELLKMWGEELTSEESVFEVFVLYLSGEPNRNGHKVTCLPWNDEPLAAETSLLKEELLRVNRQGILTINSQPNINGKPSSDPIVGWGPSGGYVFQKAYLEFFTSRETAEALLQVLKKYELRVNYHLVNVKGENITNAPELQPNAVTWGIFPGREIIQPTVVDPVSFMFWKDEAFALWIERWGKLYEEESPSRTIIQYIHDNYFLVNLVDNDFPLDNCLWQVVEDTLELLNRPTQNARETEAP

Molecule: Nc1nc(=O)c2c([nH]1)NCC(CNc1ccc(C(=O)N[C@@H](CCC(=O)O)C(=O)O)cc1)N2C=O (mixture of isomers) [Folinic acid]
- bioavailability [1]: 92%
- Cofactor (MTHFR): Not a cofactor.
- Stability: half-life in the body compared with folic acid [2]: longer half-life in
- transport through the blood brain barrier into the central nervous system [3]: readily transported
- Therapeutic effects [4]: more metabolically

Molecule: C=C1CC[C@H](O)C/C1=C/C=C1\CCC[C@]2(C)[C@@H]([C@H](C)CCCC(C)C)CC[C@@H]12 [Cholecalciferol]
- effect on mortality [5]: decrease mortality

Molecule: Nc1nc2ncc(CNc3ccc(C(=O)N[C@@H](CCC(=O)O)C(=O)O)cc3)nc2c(=O)[nH]1 [Folic acid (FA), Folic acid]
- Cofactor (MTHFR): Not a cofactor.
- Side effects: masking of vitamin B12 deficiency [6]: “does not mask
- Stability upon exposure to heat compared with natural forms of folate in the diet [7]: FA is more stable

Molecule: CN(C)C(=N)N=C(N)N [metformin]
- effect on vitamin B12 and folate levels [8]: decrease of vitamin B12 and folate

Molecule: [Zn] [zinc]
- effect on copper absorption (copper absorption): inhibits copper absorption

Molecule: Vitamin E
- effect on absorption of desipramine (Norpramin) [9]: interferes with the absorption

Molecule: cobalamin [B12]
- B12 intake above which absorbance declines with increased supplementation [10]: about 10 mcg
